# How the values were obtained:
# [1] = tested on: Xenograft models of small cell lung cancer (SCLC), non-small cell lung cancer (NSCLC), acute myeloid leukemia (AML) and non-Hodgkin's lymphoma; details: cited from earlier work
# [2] = target: PRMT5 (Homo sapiens (Human), UniProt O14744); assay: Inhibitory activity against PRMT5 enzyme by radioisotopic method; assay type: biochemical; details: PRMT5 5 nM, [3H]-SAM 0.3 μM, polypeptide substrate GL-27 100 nM, room temperature
# Summary of the method: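 PRMT5 (5 nM) preincubated with compound and [3H]-SAM (0.3 μM) 60 min at RT in Tris pH 8.0/Tween-20/DTT, 1% DMSO; biotinylated GL-27 peptide (100 nM) added, 120 min RT, stopped with cold SAM. Peptide captured on streptavidin FlashPlate, CPM counted; IC50 from four-parameter fit of % inhibition.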
# Chain of PRMT5 (O14744 whole entry): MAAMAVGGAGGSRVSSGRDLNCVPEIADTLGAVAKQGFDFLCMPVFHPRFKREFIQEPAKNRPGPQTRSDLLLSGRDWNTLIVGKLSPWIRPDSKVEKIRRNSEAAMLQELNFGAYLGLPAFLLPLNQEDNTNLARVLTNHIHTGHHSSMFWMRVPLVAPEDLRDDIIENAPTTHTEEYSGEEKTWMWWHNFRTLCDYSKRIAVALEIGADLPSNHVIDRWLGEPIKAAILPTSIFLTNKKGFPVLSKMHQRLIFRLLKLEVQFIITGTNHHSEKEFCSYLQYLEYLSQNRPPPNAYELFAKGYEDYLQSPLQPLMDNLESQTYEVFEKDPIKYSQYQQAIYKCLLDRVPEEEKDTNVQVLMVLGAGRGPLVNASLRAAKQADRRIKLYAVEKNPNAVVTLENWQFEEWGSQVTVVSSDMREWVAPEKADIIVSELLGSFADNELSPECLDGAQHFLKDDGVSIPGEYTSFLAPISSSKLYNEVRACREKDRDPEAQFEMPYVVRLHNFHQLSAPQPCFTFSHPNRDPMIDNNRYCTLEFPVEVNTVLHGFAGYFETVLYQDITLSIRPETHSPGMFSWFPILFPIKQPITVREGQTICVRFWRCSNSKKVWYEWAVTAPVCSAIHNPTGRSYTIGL
# Chain of PRMT5 (Q9BQA1 whole entry partner): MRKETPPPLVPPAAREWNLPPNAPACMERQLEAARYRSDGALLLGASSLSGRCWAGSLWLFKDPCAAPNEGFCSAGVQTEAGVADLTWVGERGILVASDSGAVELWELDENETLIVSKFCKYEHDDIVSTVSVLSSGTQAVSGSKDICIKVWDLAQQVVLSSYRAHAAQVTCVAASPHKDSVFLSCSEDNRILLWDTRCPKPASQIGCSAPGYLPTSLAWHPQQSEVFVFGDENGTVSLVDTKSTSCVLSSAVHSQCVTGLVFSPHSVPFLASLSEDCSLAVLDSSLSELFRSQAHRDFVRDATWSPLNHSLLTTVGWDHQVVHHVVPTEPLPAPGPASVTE
SMILES,IC50 [2],tumor growth inhibited [1]
Nc1nc2cc(CC[C@H]3C[C@@H](n4ccc5c(N)ncnc54)[C@H](O)[C@@H]3O)ccc2cc1Br [JNJ-64619178],,up to 99%
"COc1ccccc1Nc1cc(N2CC[C@H](N3CCc4ccccc4C3)[C@@H](O)C2)ncn1 (relative stereo) [Example 57, trans-4-(3,4-dihydroisoquinolin-2(1H)-yl)-1-(6-((2-methoxyphenyl)amino)pyrimidin-4-yl)piperidin-3-ol]",< 100 nM,
O[C@@H]1CN(c2cc(Nc3cccc(Cl)c3Cl)ncn2)CC[C@H]1N1CCc2ccccc2C1 [Example 89],< 100 nM,
CC(=O)N1CCC(CNc2cc(C(=O)N3CC[C@H](N4CCc5ccccc5C4)[C@@H](O)C3)ncn2)CC1 [Example 103],< 100 nM,

# Further lines, with some results ahead:
IC50 [2],SMILES,tumor growth inhibited [1]
< 100 nM,"CC(=O)N1CCC(Nc2cccc(C(=O)N3CC[C@H](N4CCc5ccccc5C4)[C@@H](O)C3)c2)CC1 (relative stereo) [Example 28, trans-1-(4-((3-(4-(3,4-dihydroisoquinolin-2(1H)-yl)-3-hydroxypiperidine-1-carbonyl)phenyl)amino)piperidin-1-yl)ethan-1-one]",
< 100 nM,"CNC(=O)c1cccc(Nc2cc(C(=O)N3CC[C@H](N4CCc5ccccc5C4)[C@@H](O)C3)ncn2)c1 (relative stereo) [Example 134, trans-3-((6-(4-(3,4-dihydroisoquinolin-2(1H)-yl)-3-hydroxypiperidine-1-carbonyl)pyrimidin-4-yl)amino)-N-methylbenzamide]",
< 100 nM,"C#Cc1nc(NC2CCN(C(C)=O)CC2)cc(C(=O)N2CC[C@@H](N3CCc4ccccc4C3)[C@H](O)C2)n1 [Example 150, 1-(4-((6-((3R,4R)-4-(3,4-dihydroisoquinolin-2(1H)-yl)-3-hydroxypiperidine-1-carbonyl)-2-ethynylpyrimidin-4-yl)amino)piperidin-1-yl)ethan-1-one]",
